Several values for one entry are separate records, joined by “and”; a condition that tells them apart may be missing. Identical values can stand only once. Like-named read-outs stand apart in the source and are kept apart here. Marks after values point to notes of the source that are not given here.

For orientation: IC50 means the point on the concentration scale where inhibition reaches its midpoint. A word on the Ki: it is the dissociation constant of the complex between target and ligand, obtained from inhibition or displacement. In general, inhibition refers to the change of the read-out against control, counted positive when it falls.

Assay [1] deals with electric eel AChE [EeAChE] (Electrophorus electricus, UniProt O42275). Nature of the assay: biochemical. Type of assay: biochemical. The conditions noted are these: for IC50: Electric eel AChE, Ellman method, read-out: IC50(nM) ± SD AChE (EeAChE); for SI: Selectivity Index = EqBChE IC50/EeAChE IC50. The procedure: The anticholinesterase activity was determined using Ellman’s method, adapted as follows. […] Subsequently, 60 μL of 5,5′-dithiobis(2-nitrobenzoic acid) (DTNB, 1.1 mM) and 30 μL of enzyme solution (electric eel AChE [EeAChE], human AChE [hAChE], or equine serum BChE [EqBChE], 0.20 U/mL) containing 1 mg/mL bovine serum albumin (BSA) were added. […] Enzyme activity was calculated as the percentage relative to untreated controls, subtracting the blank reference. IC50 values were derived via non-linear regression analysis of dose–response curves (Figure S4) using GraphPad Prism v7.0.
On the technique in general: Ellman's reagent forms a yellow product with free thiols.

Assay [2] addresses electric eel acetylcholinesterase (EeAChE) (Electrophorus electricus, UniProt O42275). Nature of the assay: Enzymatic kinetic study, EeAChE. Conditions: AChE. The class given is biochemical. On the procedure:
(§1) The enzymatic kinetics of cholinesterase inhibition were determined according to an adapted Ellman’s method. All of the solutions were prepared at 20 °C in 0.02 M Tris-HCl buffer (pH 7.5; ionic strength ~0.02 M), stock solutions of test compounds were prepared in DMSO:EtOH (7:3) mixture (20 mM), and the experiment was conducted in triplicate. To a flat-bottom 96-well transparent plate (path length of 0.6 cm) were added 150 μL of treatment solutions with inhibitors 1a, 1h, and 1j at two different concentrations (Table S1) distributed in eight sets of triplicate each. Eight sets of untreated triplicates were used as a negative control. Following, there were added 60 μL of 5,5′-Dithiobis(2-nitrobenzoic acid) (DTNB, Ellman’s reagent) at 1.1 mM and 30 μL of electric eel acetylcholinesterase (EeAChE) or equine serum butyrylcholinesterase (EqBuChE) at 0.20 U/mL in the presence of 1 mg/mL bovine serum albumin (BSA). […] Ki, Ki’ (competitive and noncompetitive inhibition constants, respectively), Km (Michaelis-Menten constant), and Vmax values were calculated with Graphpad Prism v7.0 using the non-linear regression models for enzyme kinetics inhibition and enzyme kinetics–substrate vs. velocity.

Assay [3] addresses T1, equine serum butyrylcholinesterase (EqBuChE) (Equus caballus, UniProt P81908).
T1 construct: equine serum BChE [EqBChE]; from tissue; host or cells: equine serum
Kind of assay: Enzymatic kinetic study, EqBChE. Conditions: BChE. The class given is biochemical. On the procedure:
as §1

A further assay concerns the target T2, hH3R (Homo sapiens, UniProt Q9Y5N1).
T2 construct: expressed in transfected cells; host or cells: HEK-293
Kind of assay: H3R radioligand displacement assay ([3H]-N-α-methylhistamine). Type of assay: binding. Conditions: 95% confidence interval in brackets; HEK-293 membranes. On the procedure: HEK-293 cells (human embryonic kidney cells) stably expressing hH3R were washed and harvested in PBS buffer (phosphate-buffered saline). […] The cell membrane homogenate was centrifuged (20,000× g, 20 min, 4 °C), and the resulting pellet was resuspended in binding buffer and stored at −80 °C until use.
Prior to experiments, the cell membranes were thawed, homogenized by sonication at 4 °C, and kept in ice-cold binding buffer. Crude membrane extracts (20 μg/well in a final volume of 0.2 mL binding buffer) were incubated with [^3H]-N-α-methylhistamine (2 nM; 78.3 Ci/mmol) and varying concentrations of test compounds. Assays were performed in duplicate, with compound concentrations ranging from 0.01 nM to 100 μM. Incubations proceeded for 90 min at room temperature under continuous agitation.
Bound radioligand was separated from free radioligand by filtration through GF/B filters pretreated with 0.3% (w/v) polyethyleneimine, using a cell harvester. Radioactivity was quantified by liquid scintillation counting. Data were analyzed using GraphPad Prism v8 (San Diego, CA, USA) software, employing non-linear regression analysis.
(In general: Displacement assays read how much labelled ligand stays bound in the presence of the test substance.)

Another assay addresses T3, hMAO-B (Homo sapiens, UniProt P27338).
T3 construct: purchased Sigma-Aldrich, Gillingham, UK
T3 sequence (P27338 1-520): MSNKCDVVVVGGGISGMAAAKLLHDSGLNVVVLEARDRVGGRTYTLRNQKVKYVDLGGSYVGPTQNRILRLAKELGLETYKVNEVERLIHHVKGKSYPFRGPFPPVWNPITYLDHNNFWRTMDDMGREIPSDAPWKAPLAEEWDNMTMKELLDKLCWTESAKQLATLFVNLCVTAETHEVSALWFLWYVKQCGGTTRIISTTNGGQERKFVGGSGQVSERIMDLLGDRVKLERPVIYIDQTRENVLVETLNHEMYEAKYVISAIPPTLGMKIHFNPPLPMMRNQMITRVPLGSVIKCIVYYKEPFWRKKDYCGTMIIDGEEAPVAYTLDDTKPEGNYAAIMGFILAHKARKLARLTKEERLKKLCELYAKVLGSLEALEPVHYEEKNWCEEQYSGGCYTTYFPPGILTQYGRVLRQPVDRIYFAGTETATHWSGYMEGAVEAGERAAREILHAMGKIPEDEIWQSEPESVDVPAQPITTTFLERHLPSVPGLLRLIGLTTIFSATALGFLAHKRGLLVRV
Kind of assay: biochemical. Type of assay: biochemical. The procedure: The activity of human recombinant membrane-bound monoamine oxidase isoforms A and B (MAO-A/B) (Sigma-Aldrich, Gillingham, UK) in 50 mM potassium phosphate buffer (pH 7.5) was determined by measuring hydrogen peroxide production coupled to the fluorescent dye Amplex Red (Sigma-Aldrich, UK) at a final concentration of 50 μM, in the presence of horseradish peroxidase (HRP, 2.5 U/mL). This coupling reaction generates the fluorescent product resorufin, which was quantified at 30 °C using a fluorescence plate reader.
Reactions were initiated by adding the substrate and dye after a 30 min preincubation of the inhibitor with the enzyme. Data were analyzed using a three-parameter equation in GraphPad Prism 7.0 (San Diego, USA). Each reported value represents the mean of at least two independent determinations.

Where [4] appears, read: enzyme-substrate complex, global non-linear regression (Table 2).
The mark [5] stands for this setting: free enzyme (Table S3), read-out: Ki ± SE (95% CI).
Where [6] appears, read: global non-linear regression, mixed inhibition (Table S3).

T1 sequence (P81908 whole entry): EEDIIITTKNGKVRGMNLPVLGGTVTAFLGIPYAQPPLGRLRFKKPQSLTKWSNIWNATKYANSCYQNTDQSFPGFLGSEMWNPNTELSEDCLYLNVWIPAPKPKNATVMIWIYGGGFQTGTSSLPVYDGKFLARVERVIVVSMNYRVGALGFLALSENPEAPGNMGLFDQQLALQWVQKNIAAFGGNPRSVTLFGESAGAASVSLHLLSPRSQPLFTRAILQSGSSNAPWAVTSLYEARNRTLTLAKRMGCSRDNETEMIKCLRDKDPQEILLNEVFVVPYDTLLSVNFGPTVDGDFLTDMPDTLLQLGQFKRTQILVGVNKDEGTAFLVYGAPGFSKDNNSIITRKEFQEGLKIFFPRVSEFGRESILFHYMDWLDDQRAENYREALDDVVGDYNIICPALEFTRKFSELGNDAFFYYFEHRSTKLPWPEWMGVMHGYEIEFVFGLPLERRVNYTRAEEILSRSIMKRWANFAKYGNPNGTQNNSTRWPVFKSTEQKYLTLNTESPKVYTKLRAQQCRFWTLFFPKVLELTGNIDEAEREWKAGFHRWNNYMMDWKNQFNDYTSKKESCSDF
Chain of electric eel AChE [EeAChE] (O42275 24-633): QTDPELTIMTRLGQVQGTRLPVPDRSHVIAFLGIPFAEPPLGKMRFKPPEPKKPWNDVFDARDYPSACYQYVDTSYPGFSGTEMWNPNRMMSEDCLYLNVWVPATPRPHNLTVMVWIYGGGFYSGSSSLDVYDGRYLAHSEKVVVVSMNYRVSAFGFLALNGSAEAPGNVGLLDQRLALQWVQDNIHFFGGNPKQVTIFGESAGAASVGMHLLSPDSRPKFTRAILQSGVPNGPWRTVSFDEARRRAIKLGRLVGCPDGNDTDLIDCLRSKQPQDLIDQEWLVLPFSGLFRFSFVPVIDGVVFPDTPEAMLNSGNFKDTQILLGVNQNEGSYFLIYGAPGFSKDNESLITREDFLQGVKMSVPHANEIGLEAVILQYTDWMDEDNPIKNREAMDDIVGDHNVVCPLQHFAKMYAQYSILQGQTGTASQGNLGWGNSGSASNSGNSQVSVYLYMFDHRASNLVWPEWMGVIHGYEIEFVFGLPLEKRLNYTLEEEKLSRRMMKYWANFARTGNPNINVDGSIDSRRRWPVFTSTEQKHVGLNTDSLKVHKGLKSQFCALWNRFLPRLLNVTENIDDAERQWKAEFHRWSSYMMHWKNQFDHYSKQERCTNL
Chain of electric eel acetylcholinesterase (EeAChE) (O42275 24-633): as above
T2 sequence (Q9Y5N1 whole entry): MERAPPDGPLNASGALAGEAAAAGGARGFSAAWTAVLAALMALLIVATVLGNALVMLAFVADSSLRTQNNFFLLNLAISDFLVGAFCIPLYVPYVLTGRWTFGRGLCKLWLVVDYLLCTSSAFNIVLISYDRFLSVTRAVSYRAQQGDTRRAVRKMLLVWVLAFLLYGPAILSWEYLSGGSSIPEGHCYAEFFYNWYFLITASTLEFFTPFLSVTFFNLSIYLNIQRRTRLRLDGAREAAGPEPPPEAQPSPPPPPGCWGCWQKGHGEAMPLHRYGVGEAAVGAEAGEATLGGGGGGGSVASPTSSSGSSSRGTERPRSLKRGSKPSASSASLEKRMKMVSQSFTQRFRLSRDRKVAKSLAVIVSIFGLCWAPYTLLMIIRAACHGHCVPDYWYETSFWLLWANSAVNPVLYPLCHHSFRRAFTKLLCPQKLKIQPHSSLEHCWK

Turning to `O=c1oc2cc(OCCN3CCCCC3)ccc2cc1-c1cn(Cc2ccccc2)nn1` [Compound 1h, 3-(1-Benzyl-1H-1,2,3-triazol-4-yl)-7-(2-(piperidin-1-yl)ethoxy)-2H-chromen-2-one], in assay [1], the half-maximal inhibitory concentration (IC50) came out at 6.03 ± 0.62 nM. For the same compound, in assay [1], the SI was 632. The inhibition mechanism result in assay [2] (Lineweaver-Burk plots) and in assay [3] (Lineweaver-Burk plots) was “mixed-type inhibition” each time. In addition, the “Ki’ (nM) ± SE” value in assay [2] (setting [4]) is given as 7.17 ± 1.48 nM; in assay [3] (setting [4]), 4830 ± 620 nM. Also, the inhibition constant (Ki) in assay [2] (setting [5]) is 4.73 ± 0.878 nM; in assay [2] (free enzyme, global non-linear regression to mixed-inhibition equation (Table 2), read-out: Ki (nM) ± SE), 4.73 ± 0.88 nM; in assay [3] (competitive inhibition constant (Table S2), read-out: Ki (nM) ± SD), 980 ± 24 nM; in assay [3] (setting [5]) it was 1250 ± 151 nM; in assay [3] (free enzyme, global non-linear regression (Table 2), read-out: Ki (nM) ± SE) it was 1250 ± 150 nM; on hH3R, 558 nM. Also, the “α ± SE (95% CI)” value is 1.516 ± 0.3136 in assay [2] (setting [6]) and 3.852 ± 0.4265 in assay [3] (setting [6]). In addition, the “Vmax ± SD” value in assay [2] (inhibitor 0.005 μM) was 4.45 ± 0.02231 1 × 10^3 nM/min and 4.45 ± 0.02 1 × 10^3 nM/min; in assay [2] (inhibitor 0.007 μM), 3.19 ± 0.0981 1 × 10^3 nM/min and 3.19 ± 0.010 1 × 10^3 nM/min; in assay [3] (inhibitor 2.8 μM), 3.62 ± 0.1358 1 × 10^3 nM/min and 3.62 ± 0.14 1 × 10^3 nM/min; in assay [3] (inhibitor 4.8 μM), 3.40 ± 0.0349 1 × 10^3 nM/min and 3.40 ± 0.03 1 × 10^3 nM/min. At hMAO-B (test concentration of 1 µM, read-out: Percentage of MAO-B inhibition ± SEM), the inhibition at 1 µM came to 11.3 ± 1.9%.
For `O=c1oc2cc(OCCCN3CCCCC3)ccc2cc1-c1cn(Cc2ccccc2)nn1` [Compound 1q, 3-(1-Benzyl-1H-1,2,3-triazol-4-yl)-7-(3-(piperidin-1-yl)propoxy)-2H-chromen-2-one], in assay [1], the IC50 was 1950 ± 86 nM and the SI is given as ~2 ^e,f. The affinity at hH3R corresponds to a Ki of 151 nM. Further, at hMAO-B, half-maximal inhibition (IC50) was put at 1690 nM and the MAO-B/A selectivity ratio entry is recorded as “greater than 18 fold”.

These data come from paper PMC12472947 (Pharmaceuticals, 2025).
